Several values for one entry are separate records, joined by “and”; a condition that tells them apart may be missing. Equal values may be shown once. Toxic doses and inconclusive results are not listed.
Tested on: BDF1 mice, L1210 6-MP/6-TG resistant leukemia ip, survival T/C
Test: NCI In Vivo Anticancer Drug Screen. Data for tumor model L1210 Leukemia resistant to 6-MP and 6-Thioguanine; NSC 755, NSC 752 (intraperitoneal) in B6D2F1 (BDF1) mice
Settings: endpoint: mean survival time, higher = longer survival
Method: The antitumor activity of compounds was measured in mice bearing transplantable tumors. Survival or tumor size were measured and the results are expressed as the measurement made in the treated group (T) divided by the measurement made in the vehicle treated control group (C). The tumor model used in this assay is L1210 Leukemia resistant to 6-MP and 6-Thioguanine; NSC 755, NSC 752 (intraperitoneal) in B6D2F1 (BDF1) mice

[1] = dose: 37.5 mg/kg/injection, schedule: Q01DX Z (ip), vehicle: carboxymethylcellulose (CMC)
[2] = dose: 50.0 mg/kg/injection, schedule: Q01DX Z (ip), vehicle: carboxymethylcellulose (CMC)
[3] = dose: 75.0 mg/kg/injection, schedule: Q01DX Z (ip), vehicle: carboxymethylcellulose (CMC)
[4] = dose: 150.0 mg/kg/injection, schedule: Q01DX Z (ip), vehicle: carboxymethylcellulose (CMC)

Structure (SMILES): CN(Cc1cnc2nc(N)nc(N)c2n1)c1c(Cl)cc(C(=O)NC(CCC(=O)O)C(=O)O)cc1Cl (configuration not stated)
- T/C (dose: 0.31 mg/kg/injection, schedule: Q01DX015 (ip), vehicle: carboxymethylcellulose (CMC)): 154 % of control
- T/C (dose: 0.62 mg/kg/injection, schedule: Q01DX015 (ip), vehicle: carboxymethylcellulose (CMC)): 238 % of control
- T/C (dose: 1.25 mg/kg/injection, schedule: Q01DX015 (ip), vehicle: carboxymethylcellulose (CMC)): 307 % of control
- T/C (dose: 2.5 mg/kg/injection, schedule: Q01DX015 (ip), vehicle: carboxymethylcellulose (CMC)): 175 % of control and 320 % of control
- T/C (dose: 5.0 mg/kg/injection, schedule: Q01DX015 (ip), vehicle: carboxymethylcellulose (CMC)): 219 % of control and 330 % of control
- T/C (dose: 9.0 mg/kg/injection, schedule: Q02DX010 (ip), vehicle: carboxymethylcellulose (CMC)): 348 % of control
- T/C (dose: 10.0 mg/kg/injection, schedule: Q01DX015 (ip), vehicle: carboxymethylcellulose (CMC)): 162 % of control
- T/C (dose: 13.0 mg/kg/injection, schedule: Q01DX015 (ip), vehicle: carboxymethylcellulose (CMC)): 293 % of control
- T/C (dose: 13.0 mg/kg/injection, schedule: Q02DX010 (ip), vehicle: carboxymethylcellulose (CMC)): 348 % of control
- T/C (dose: 20.0 mg/kg/injection, schedule: Q01DX015 (ip), vehicle: carboxymethylcellulose (CMC)): 262 % of control
- T/C (dose: 20.0 mg/kg/injection, schedule: Q02DX010 (ip), vehicle: carboxymethylcellulose (CMC)): 308 % of control
- T/C (dose: 30.0 mg/kg/injection, schedule: Q01DX015 (ip), vehicle: carboxymethylcellulose (CMC)): 168 % of control and 181 % of control
- T/C (dose: 30.0 mg/kg/injection, schedule: Q02DX010 (ip), vehicle: carboxymethylcellulose (CMC)): 310 % of control
- T/C (dose: 45.0 mg/kg/injection, schedule: Q01DX015 (ip), vehicle: carboxymethylcellulose (CMC)): 269 % of control
- T/C (dose: 45.0 mg/kg/injection, schedule: Q02DX010 (ip), vehicle: carboxymethylcellulose (CMC)): 343 % of control
- T/C (dose: 67.0 mg/kg/injection, schedule: Q02DX010 (ip), vehicle: carboxymethylcellulose (CMC)): 348 % of control
- T/C (dose: 67.5 mg/kg/injection, schedule: Q01DX015 (ip), vehicle: carboxymethylcellulose (CMC)): 205 % of control
- T/C (dose: 80.0 mg/kg/injection, schedule: Q01DX015 (ip), vehicle: carboxymethylcellulose (CMC)): 116 % of control
- T/C (dose: 80.0 mg/kg/injection, schedule: Q01DX015 (ip), vehicle: saline): 194 % of control
- T/C (dose: 100.0 mg/kg/injection, schedule: Q01DX015 (ip), vehicle: carboxymethylcellulose (CMC)): 121 % of control
- T/C (dose: 100.0 mg/kg/injection, schedule: Q01DX015 (ip), vehicle: saline): 233 % of control
- T/C (dose: 120.0 mg/kg/injection, schedule: Q01DX015 (ip), vehicle: carboxymethylcellulose (CMC)): 104 % of control
- T/C (dose: 120.0 mg/kg/injection, schedule: Q01DX015 (ip), vehicle: saline): 112 % of control
- T/C (dose: 75.0 micrograms/kg/injection, schedule: Q01DX015 (ip), vehicle: carboxymethylcellulose (CMC)): 307 % of control
- T/C (dose: 150.0 micrograms/kg/injection, schedule: Q01DX015 (ip), vehicle: carboxymethylcellulose (CMC)): 300 % of control
- T/C (dose: 310.0 micrograms/kg/injection, schedule: Q01DX015 (ip), vehicle: carboxymethylcellulose (CMC)): 293 % of control
- T/C (dose: 620.0 micrograms/kg/injection, schedule: Q01DX015 (ip), vehicle: carboxymethylcellulose (CMC)): 313 % of control

Structure (SMILES): CC(CCC(C)OS(C)(=O)=O)OS(C)(=O)=O (configuration not stated)
- T/C (dose: 25.0 mg/kg/injection, schedule: Q01DX Z (ip), vehicle: carboxymethylcellulose (CMC)): 112 % of control
- T/C [1]: 116 % of control
- T/C [2]: 118 % of control
- T/C [3]: 98 % of control

Structure (SMILES): O=c1[nH]cnc2n[nH]nc12
- T/C (dose: 278.0 mg/kg/injection, schedule: Q01DX009 (ip), vehicle: saline with Tween-80): 99 % of control
- T/C (dose: 423.0 mg/kg/injection, schedule: Q01DX009 (ip), vehicle: Klucel (hydroxypropylcellulose) (HPC)): 96 % of control
- T/C (dose: 423.0 mg/kg/injection, schedule: Q01DX009 (ip), vehicle: saline with Tween-80): 98 % of control
- T/C (dose: 632.0 mg/kg/injection, schedule: Q01DX009 (ip), vehicle: Klucel (hydroxypropylcellulose) (HPC)): 100 % of control
- T/C (dose: 632.0 mg/kg/injection, schedule: Q01DX009 (ip), vehicle: saline with Tween-80): 98 % of control
- T/C (dose: 948.0 mg/kg/injection, schedule: Q01DX009 (ip), vehicle: saline with Tween-80): 94 % of control

Structure (SMILES): OCn1cnc2c(SC3CCCC3)ncnc21
- T/C (dose: 12.5 mg/kg/injection, schedule: Q01DX009 (ip), vehicle: other): 91 % of control
- T/C (dose: 50.0 mg/kg/injection, schedule: Q01DX009 (ip), vehicle: other): 89 % of control and 93 % of control

Structure (SMILES): Nc1ccc(OC(=O)Oc2ccc(N)cc2)cc1
- T/C (dose: 62.0 mg/kg/injection, schedule: Q01DX Z (ip), vehicle: saline): 95 % of control
- T/C (dose: 125.0 mg/kg/injection, schedule: Q01DX Z (ip), vehicle: saline): 152 % of control
- T/C (dose: 250.0 mg/kg/injection, schedule: Q01DX Z (ip), vehicle: saline): 103 % of control

Structure (SMILES): CCn1cnc2c(=S)nc[nH]c21
- T/C [2]: 91 % of control
- T/C [3]: 94 % of control
- T/C (dose: 100.0 mg/kg/injection, schedule: Q01DX Z (ip), vehicle: carboxymethylcellulose (CMC)): 92 % of control
- T/C [4]: 87 % of control

Structure (SMILES): CN(C)/N=N/c1nc[nH]c1C(N)=O
- T/C (dose: 12.5 mg/kg/injection, schedule: Q01DX015 (ip), vehicle: carboxymethylcellulose (CMC)): 104 % of control
- T/C (dose: 25.0 mg/kg/injection, schedule: Q01DX015 (ip), vehicle: carboxymethylcellulose (CMC)): 107 % of control
- T/C (dose: 50.0 mg/kg/injection, schedule: Q01DX015 (ip), vehicle: carboxymethylcellulose (CMC)): 112 % of control
- T/C (dose: 200.0 mg/kg/injection, schedule: Q01DX015 (ip), vehicle: carboxymethylcellulose (CMC)): 115 % of control

Structure (SMILES): Nc1ncnc2c1ncn2C(C=O)OC(C=O)CO (configuration not stated)
- T/C (dose: 4.0 mg/kg/injection, schedule: Q01DX Z (ip), vehicle: carboxymethylcellulose (CMC)): 97 % of control
- T/C (dose: 6.0 mg/kg/injection, schedule: Q01DX Z (ip), vehicle: carboxymethylcellulose (CMC)): 102 % of control
- T/C (dose: 8.0 mg/kg/injection, schedule: Q01DX Z (ip), vehicle: carboxymethylcellulose (CMC)): 106 % of control
- T/C (dose: 12.0 mg/kg/injection, schedule: Q01DX015 (ip), vehicle: saline): 170 % of control
- T/C (dose: 12.0 mg/kg/injection, schedule: Q01DX Z (ip), vehicle: saline): 124 % of control
- T/C (dose: 13.0 mg/kg/injection, schedule: Q01DX015 (ip), vehicle: saline): 171 % of control
- T/C (dose: 24.0 mg/kg/injection, schedule: Q01DX015 (ip), vehicle: saline): 189 % of control
- T/C (dose: 48.0 mg/kg/injection, schedule: Q01DX015 (ip), vehicle: saline): 111 % of control
- T/C (dose: 50.0 mg/kg/injection, schedule: Q01DX Z (ip), vehicle: saline): 88 % of control

Structure (SMILES): COC12C(COC(N)=O)C3=C(C(=O)C(C)=C(N)C3=O)N1CC1C2N1C (configuration not stated)
- T/C (dose: 1.3 mg/kg/injection, schedule: Q01DX015 (ip), vehicle: carboxymethylcellulose (CMC)): 166 % of control
- T/C (dose: 1.9 mg/kg/injection, schedule: Q01DX015 (ip), vehicle: carboxymethylcellulose (CMC)): 120 % of control
- T/C (dose: 2.0 mg/kg/injection, schedule: Q01DX015 (ip), vehicle: carboxymethylcellulose (CMC)): 254 % of control
- T/C (dose: 2.9 mg/kg/injection, schedule: Q01DX015 (ip), vehicle: carboxymethylcellulose (CMC)): 181 % of control
- T/C (dose: 3.0 mg/kg/injection, schedule: Q01DX015 (ip), vehicle: carboxymethylcellulose (CMC)): 229 % of control
- T/C (dose: 4.4 mg/kg/injection, schedule: Q01DX015 (ip), vehicle: carboxymethylcellulose (CMC)): 123 % of control
- T/C (dose: 4.5 mg/kg/injection, schedule: Q01DX015 (ip), vehicle: carboxymethylcellulose (CMC)): 189 % of control
- T/C (dose: 6.75 mg/kg/injection, schedule: Q01DX015 (ip), vehicle: carboxymethylcellulose (CMC)): 166 % of control

Structure (SMILES): c1nc(SC2=NCCN2)c2[nH]cnc2n1
- T/C (dose: 6.25 mg/kg/injection, schedule: Q01DX Z (ip), vehicle: saline): 98 % of control
- T/C (dose: 12.5 mg/kg/injection, schedule: Q01DX Z (ip), vehicle: saline): 93 % of control

Structure (SMILES): C[C@H]1C(=O)O[C@@H]2CCN3CC=C(COC(=O)[C@](C)(O)[C@@]1(C)O)[C@H]23
- T/C [1]: 91 % of control
- T/C [3]: 110 % of control
- T/C [4]: 107 % of control
- T/C (dose: 300.0 mg/kg/injection, schedule: Q01DX Z (ip), vehicle: carboxymethylcellulose (CMC)): 104 % of control

Structure (SMILES): O=c1[nH]cnc2c1nnn2C1OC(CO)C(O)C1O (configuration not stated)
- T/C (dose: 50.0 mg/kg/injection, schedule: Q01DX009 (ip), vehicle: saline): 111 % of control
- T/C (dose: 76.0 mg/kg/injection, schedule: Q01DX009 (ip), vehicle: saline): 118 % of control
- T/C (dose: 114.0 mg/kg/injection, schedule: Q01DX009 (ip), vehicle: saline): 156 % of control and 171 % of control
- T/C (dose: 256.0 mg/kg/injection, schedule: Q01DX009 (ip), vehicle: saline): 112 % of control

From PubChem BioAssay AID308 (DTP/NCI, 2004)
